# Like-named read-outs stand apart in the source and are kept apart here.
# Experiments:
# [1] = system: HBV; conditions: Phase 1b proof-of-concept clinical studies; cited from earlier work
# [2] = system: HBV; assay: HBV inhibition assay in HepAD38 cells (extracellular HBV DNA by direct qPCR); assay type: cell-based, Hepatitis B virus; conditions: for inhibition at 0.1 µM / Anti HBV Activity (conc μM) / inhibition at 0.05 µM: relative to non-treated reference; for inhibition at 0.1 µM / inhibition at 0.05 µM: read-out: Anti HBV Activity (conc μM)
# [3] = Hepatitis B virus, 0.1 μM, 96 hours
# [4] = Hepatitis B virus, 96 hours, 8-point dose-response curve, read-out: HBV inh EC50
# [5] = 96 hours, 8-point dose-response curve, read-out: HBV inh EC50
# [6] = Hepatitis B virus, 0.05 μM, 96 hours
compound,measurement,setting,value
O=C(Nc1cc(F)c(F)c(F)c1)c1ccc(F)c(S(=O)(=O)N2CCC(O)CC2)c1 [NVR3-778],reduction in HBV DNA and serum HBV RNA,[1],significant reduction in HBV DNA and serum HBV RNA
"CNC(=O)N1CC2COc3c(cn(C)c3C(=O)Nc3cc(F)c(F)c(F)c3)S(=O)(=O)NC2C1 (racemic) [Example E23, (3aR,10aR) and (3aS,10aS)—N^2,7-dimethyl-N^8-(3,4,5-trifluorophenyl)-3a,4,10,10a-tetrahydro-1H,7H-dipyrrolo[3,4-b:3′,4′-f][1,4,5]oxathiazocine-2,8(3H)-dicarboxamide 5,5-dioxide]",inhibition at 0.1 µM,[2]; [3],> 50%
same,EC50,[2]; [4],< 1 µM
"Cc1cc(NC(=O)c2c3c(cn2C)S(=O)(=O)N[C@H]2CN(C(=O)C4CCO4)C[C@H]2CO3)ccc1F (stereo partly drawn) [Example E110, (3aR,10aR)—N-(4-fluoro-3-methylphenyl)-7-methyl-2-(oxetane-2-carbonyl)-2,3,3a,4,10,10a-hexahydro-1H,7H-dipyrrolo[3,4-b:3′,4′-f][1,4,5]oxathiazocine-8-carboxamide 5,5-dioxide]",EC50,[2]; [4],< 1 µM
"Cn1cc2c(c1C(=O)Nc1cc(F)c(F)c(F)c1)OC[C@@H]1CN(C(=O)c3nnc(N)o3)C[C@@H]1NS2(=O)=O [Example E102, (3aR,10aR)-2-(5-amino-1,3,4-oxadiazole-2-carbonyl)-7-methyl-N-(3,4,5-trifluorophenyl)-2,3,3a,4,10,10a-hexahydro-1H,7H-dipyrrolo[3,4-b:3′,4′-f][1,4,5]oxathiazocine-8-carboxamide 5,5-dioxide]",EC50,[2]; [4],< 1 µM
"Cc1cc(NC(=O)c2c3c(cn2C)S(=O)(=O)NC2CCN(C(=O)c4ncoc4C)CC2CO3)ccc1F (racemic) [Example E134, Trans-N-(4-fluoro-3-methylphenyl)-2-methyl-8-(5-methyloxazole-4-carbonyl)-5,5a,6,7,8,9,9a,10-octahydro-2H-pyrido[4,3-f]pyrrolo[3,4-b][1,4,5]oxathiazocine-1-carboxamide 4,4-dioxide]",EC50,[2]; [4],< 1 µM
"CCOC(=O)N1CC2CCOc3c(cn(C)c3C(=O)Nc3cc(F)c(F)c(F)c3)S(=O)(=O)NC2C1 (mixture of isomers) [Example E156, Cis/Trans Ethyl 7-methyl-8-((3,4,5-trifluorophenyl)carbamoyl)-1,3a,4,10,11,11a-hexahydro-7H-dipyrrolo[3,4-b:3′,4′-f][1,4,5]oxathiazocine-2(3H)-carboxylate 5,5-dioxide]",EC50,[2]; [4],< 1 µM
"Cc1noc(N2CC3COc4c(cn(C)c4C(=O)Nc4cc(F)c(F)c(F)c4)S(=O)(=O)NC3C2)n1 (stereo not drawn) [Example E83, cis-7-methyl-2-(3-methyl-1,2,4-oxadiazol-5-yl)-N-(3,4,5-trifluorophenyl)-2,3,3a,4,10,10a-hexahydro-1H,7H-dipyrrolo[3,4-b:3′,4′-f][1,4,5]oxathiazocine-8-carboxamide 5,5-dioxide]",inhibition at 0.1 µM,[2]; [3],> 50%
same,EC50,[2]; [4],< 1 µM
"Cc1cc(NC(=O)c2c3c(cn2C)S(=O)(=O)NC2CN(C(=O)C4(C)COC4)CC2CO3)ccc1F (stereo not drawn) [Example E66, cis-N-(4-fluoro-3-methylphenyl)-7-methyl-2-(3-methyloxetane-3-carbonyl)-2,3,3a,4,10,10a-hexahydro-1H,7H-dipyrrolo[3,4-b:3′,4′-f][1,4,5]oxathiazocine-8-carboxamide 5,5-dioxide]",EC50,[2]; [4],< 1 µM
"CCOC(=O)N1CC2COc3c(cn(C)c3C(=O)Nc3ccc(F)c(C(F)F)c3)S(=O)(=O)NC2C1 (single isomer, unassigned) [Example E43, Ethyl 8-((3-(difluoromethyl)-4-fluorophenyl)carbamoyl)-7-methyl-3a,4,10,10a-tetrahydro-1H,7H-dipyrrolo[3,4-b:3′,4′-f][1,4,5]oxathiazocine-2(3H)-carboxylate 5,5-dioxide (Chiral 3aS,10aS or 3aR,10aR - Stereochemistry unknown)]",Anti HBV Activity (conc μM),"[2]; 0.05 μM, 96 hours",A (0.05) (HBV inhibition greater than 50% at the concentration indicated in the table)
same,EC50,[2]; [5],< 1 µM
"Cn1cc2c(c1C(=O)Nc1cc(F)c(F)c(F)c1)OC[C@@H]1CN(C(=O)c3cocn3)C[C@@H]1NS2(=O)=O [Example E106, (3aR,10aR)-7-methyl-2-(oxazole-4-carbonyl)-N-(3,4,5-trifluorophenyl)-2,3,3a,4,10,10a-hexahydro-1H,7H-dipyrrolo[3,4-b:3′,4′-f][1,4,5]oxathiazocine-8-carboxamide 5,5-dioxide]",EC50,[2]; [4],< 1 µM
"Cc1cc(NC(=O)c2c3c(cn2C)S(=O)(=O)N[C@@H]2CCN(C(=O)C4(C)COC4)C[C@H]2CO3)ccc1F (relative stereo) [Example E131, Trans-N-(4-fluoro-3-methylphenyl)-2-methyl-8-(3-methyloxetane-3-carbonyl)-5,5a,6,7,8,9,9a,10-octahydro-2H-pyrido[4,3-f]pyrrolo[3,4-b][1,4,5]oxathiazocine-1-carboxamide 4,4-dioxide]",EC50,[2]; [4],< 1 µM
"Cc1cc(NC(=O)c2c3c(cn2C)S(=O)(=O)NC2CCN(C(=O)c4ncoc4C)CC2CO3)ccc1F (racemic) [Example E129, Cis-N-(4-fluoro-3-methylphenyl)-2-methyl-8-(5-methyloxazole-4-carbonyl)-5,5a,6,7,8,9,9a,10-octahydro-2H-pyrido[4,3-f]pyrrolo[3,4-b][1,4,5]oxathiazocine-1-carboxamide 4,4-dioxide]",EC50,"[2]; read-out: HBV inh EC50, 96 hours, 8-point dose-response curve",< 1 µM
"Cn1cc(C(=O)N2CC3COc4c(cn(C)c4C(=O)Nc4cc(F)c(F)c(F)c4)S(=O)(=O)NC3C2)cn1 (stereo not drawn) [Example E57, cis-7-methyl-2-(1-methyl-1H-pyrazole-4-carbonyl)-N-(3,4,5-trifluorophenyl)-2,3,3a,4,10,10a-hexahydro-1H,7H-dipyrrolo[3,4-b:3′,4′-f][1,4,5]oxathiazocine-8-carboxamide 5,5-dioxide]",inhibition at 0.1 µM,[2]; [3],< 50%
"Cn1cc2c(c1C(=O)Nc1cc(F)c(F)c(F)c1)OC[C@H]1CN(C(=O)c3ncco3)C[C@H]1NS2(=O)=O (relative stereo) [Example E50, cis-7-methyl-2-(oxazole-2-carbonyl)-N-(3,4,5-trifluorophenyl)-2,3,3a,4,10,10a-hexahydro-1H,7H-dipyrrolo[3,4-b:3′,4′-f][1,4,5]oxathiazocine-8-carboxamide 5,5-dioxide]",inhibition at 0.05 µM,[2]; [6],> 50%
same,EC50,[2]; [4],< 1 µM
"ethyl 7-methyl-8-((3,4,5-trifluorophenyl)carbamoyl)-3a,4,10,10a-tetrahydro-1H,7H-dipyrrolo[3,4-b:3′,4′-f][1,4,5]oxathiazocine-2(3H)-carboxylate 5,5-dioxide (3aR,10aR) [Example E31]",Anti HBV Activity (conc μM),"[2]; 0.1 μM, 96 hours",B (0.1) (HBV inhibition less than 50% at the concentration indicated in the table)
"Cc1cc(NC(=O)c2c3c(cn2C)S(=O)(=O)NC2CN(c4ccnc(Cl)c4)CC2CO3)ccc1F (stereo not drawn) [Example E76, cis-2-(2-chloropyridin-4-yl)-N-(4-fluoro-3-methylphenyl)-7-methyl-2,3,3a,4,10,10a-hexahydro-1H,7H-dipyrrolo[3,4-b:3′,4′-f][1,4,5]oxathiazocine-8-carboxamide 5,5-dioxide]",inhibition at 0.05 µM,[2]; [6],> 50%
same,EC50,[2]; [4],< 1 µM
"Cc1nnc(C(=O)N2C[C@H]3CSc4c(cn(C)c4C(=O)Nc4ccc(F)c(C)c4)S(=O)(=O)N[C@H]3C2)o1 [Example E124, (3aR,10aR)—N-(4-fluoro-3-methylphenyl)-7-methyl-2-(5-methyl-1,3,4-oxadiazole-2-carbonyl)-2,3,3a,4,10,10a-hexahydro-1H,7H-dipyrrolo[3,4-c:3′,4′-g][1,6,2]dithiazocine-8-carboxamide 5,5-dioxide]",EC50,[2]; [4],< 1 µM
"Cn1cc2c(c1C(=O)Nc1ccc(F)c(F)c1)OCC1CCCC1NS2(=O)=O (single isomer, unassigned) [Example E35, N-(3,4-difluorophenyl)-2-methyl-5a,6,7,8,8a,9-hexahydro-2H,5H-cyclopenta[f]pyrrolo[3,4-b][1,4,5]oxathiazocine-1-carboxamide 4,4-dioxide (Chiral 5aS,8aR or 5aR,8aS - Stereochemistry unknown)]",Anti HBV Activity (conc μM),"[2]; 0.1 μM, 96 hours",A (0.1) (HBV inhibition greater than 50% at the concentration indicated in the table)
same,EC50,[2]; [5],< 1 µM
"Cn1cc2c(c1C(=O)Nc1cc(F)c(F)c(F)c1)OCC1CNCC1NS2(=O)=O (racemic) [Example E11, cis-7-methyl-N-(3,4,5-trifluorophenyl)-2,3,3a,4,10,10a-hexahydro-1H,7H-dipyrrolo[3,4-b:3′,4′-f][1,4,5]oxathiazocine-8-carboxamide 5,5-dioxide]",inhibition at 0.1 µM,[2]; [3],> 50%
same,EC50,[2]; [4],< 1 µM
"Cn1cc2c(c1C(=O)Nc1cc(F)c(F)c(F)c1)OCC1CN(CC(F)(F)F)CC1NS2(=O)=O (stereo not drawn) [Example E73, cis-7-methyl-2-(2,2,2-trifluoroethyl)-N-(3,4,5-trifluorophenyl)-2,3,3a,4,10,10a-hexahydro-1H,7H-dipyrrolo[3,4-b:3′,4′-f][1,4,5]oxathiazocine-8-carboxamide 5,5-dioxide]",inhibition at 0.1 µM,[2]; [3],> 50%

# Source: patent publication US11504382B2, “Tricyclic inhibitors of Hepatitis B virus” (Antios Therapeutics, Inc., priority 2018, dated 2022)
